Experimental data: patent publication US20240309043A1, “THERAPEUTICALLY ACTIVE STEROIDAL DERIVATIVES” (Organon R&D Finland Ltd., priority 2017, published 2024)

Columns and labels:
Format in all cases: biochemical
[1] = biological target: T1, recombinant human 17β-HSD1 (Homo sapiens, UniProt P14061); experiment: Inhibition of recombinant human 17β-HSD1; settings: inhibitor 100 nM; 30 nM estrone, 1 mM NADPH, 30 min RT
T1 construct: made in house; host or cells: Sd9 (Sf9) insect cells, baculovirus (Bac to Bac Expression System)
T1 sequence (P14061 1-328): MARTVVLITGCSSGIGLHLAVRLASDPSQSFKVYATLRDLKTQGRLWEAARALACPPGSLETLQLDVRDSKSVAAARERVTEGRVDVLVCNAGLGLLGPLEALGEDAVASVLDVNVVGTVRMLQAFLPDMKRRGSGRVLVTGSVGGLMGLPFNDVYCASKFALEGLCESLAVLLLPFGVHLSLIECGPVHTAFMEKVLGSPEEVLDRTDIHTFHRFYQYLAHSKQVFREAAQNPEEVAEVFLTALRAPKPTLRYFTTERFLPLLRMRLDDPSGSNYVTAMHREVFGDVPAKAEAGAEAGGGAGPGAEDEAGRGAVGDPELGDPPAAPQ
Method: 17β-HSD1 production and isolation: Recombinant baculovirus was generated by the “Bac to Bac Expression System” (Invitrogen). Recombinant bacmid was transfected to Sd9 insect cells using “Cellfectin Reagent” (Invitrogen). 60 h later cells were harvested; the microsomal fraction was isolated as described by Puranen, T. J., Poutanen, M. H., Peltoketo, H. E., Vihko, P. T. and Vihko, R. K. (1994) Site-directed mutagenesis of the putative active site of human 17 β-hydroxysteroid dehydrogenase type 1. Biochem. J. 304: 289-293. Aliquots were stored frozen until determination of enzymatic activity.
Assay—Inhibition of recombinant human 17β-HSD1: Recombinant protein (1 μg/ml) was incubated in 20 mM KH2PO4 pH 7.4 with 30 nM estrone (including 800 000 cpm/ml of ^3H-estrone) and 1 mM NADPH for 30 min at RT, in the presence of the potential inhibitor at concentrations 1 μM or 0.1 μM. Inhibitor stock solutions were prepared in DMSO. Final concentration of DMSO was adjusted to 1% in all samples. The enzyme reaction was stopped by addition of 10% trichloroacetic acid (final concentration). Samples were centrifuged in a microtiter plate at 4000 rpm for 10 min. Supernatants were applied to reverse phase HPLC on a Waters Symmetry C18 column, equipped with a Waters Sentry Guard column. Isocratic HPLC runs were performed at RT at a flow rate of 1 ml/min in acetonitrile:water 48:52 as running solvent. Radioactivity was monitored in the eluate by a Scintillation Analyzer. Total radioactivity for estrone and estradiol were determined in each sample and percent conversion of estrone to estradiol was calculated according to the following formula:
(§1) [formula] Percent inhibition was calculated flowingly: % inhibition=100−% conversion

[2] = biological target: T2, recombinant human 17β-HSD2 (Homo sapiens, UniProt P37059); experiment: Inhibition of recombinant human 17β-HSD2; settings: inhibitor 1 μM; 50 nM estradiol, 1 mM NADH, 30 min RT
T2 construct: made in house; host or cells: Sd9 (Sf9) insect cells, baculovirus (Bac to Bac Expression System)
T2 sequence (P37059 1-387): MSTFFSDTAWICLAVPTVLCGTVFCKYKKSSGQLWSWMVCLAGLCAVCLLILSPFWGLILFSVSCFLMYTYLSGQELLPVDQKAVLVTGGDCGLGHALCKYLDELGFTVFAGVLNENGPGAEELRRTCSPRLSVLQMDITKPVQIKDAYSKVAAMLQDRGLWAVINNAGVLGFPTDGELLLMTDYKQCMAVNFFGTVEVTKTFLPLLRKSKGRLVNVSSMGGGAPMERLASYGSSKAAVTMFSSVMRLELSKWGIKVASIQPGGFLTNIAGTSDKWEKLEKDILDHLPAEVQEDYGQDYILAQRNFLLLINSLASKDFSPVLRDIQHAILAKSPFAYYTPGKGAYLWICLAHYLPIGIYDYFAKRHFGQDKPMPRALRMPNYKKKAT
Method: 17β-HSD2 production and isolation: Similarly to 17β-HSD1 the Recombinant baculovirus was generated by the “Bac to Bac Expression System” (Invitrogen). Recombinant bacmid was transfected to Sd9 insect cells using “Cellfectin Reagent” (Invitrogen). 60 h later cells were harvested and supernatant were fractionated by the following protocol: • cells were dissolved into 40 ml of A-buffer (40 mM TRIS, pH 8.0, 20% glycerol, 20 μM NAD, 0.4 mM PMSF, 150 mM NaCl, 0.5% dodecyl-β-maltoside+protease inhibitor cocktail) • cells were sonicated • lysate was incubated on ice for 15 min • lysate was centrifuged 5000 rpm 15 min, +4° C. • centrifugation of the supernatant 180 000 g 30 min, +4° C. • pellet was dissolved into 8 ml of A-buffer • not resuspended material was removed by centrifugation 5000 rpm min, +4° C. • the clear supernatant was divided into 100 μl aliquots and were stored frozen until determination of enzymatic activity.
The amount of 17β-HSD2 was analysed by immunoblotting and total protein concentration of each extract batch was determined.
Assay—Inhibition of recombinant human 17β-HSD2: Recombinant protein (4 μg/ml) was incubated in 20 mM KH2PO4 pH 8.5 with 50 nM estradiol (including 800 000 cpm/ml of ^3H-estradiol) and 1 mM NADH for 30 min at RT, in the presence of the potential inhibitor at concentrations 1 μM or 0.1 μM. Inhibitor stock solutions were prepared in DMSO. Final concentration of DMSO was adjusted to 1% in all samples. The enzyme reaction was stopped by addition of 10% trichloroacetic acid (final concentration). Samples were centrifuged in a microtiter plate at 4000 rpm for 10 min. Supernatants were applied to reverse phase HPLC on a Waters Symmetry C18 column, equipped with a Waters Sentry Guard column. Isocratic HPLC runs were performed at RT at a flow rate of 1 ml/min in acetonitrile:water 48:52 as running solvent. Radioactivity was monitored in the eluate by a Scintillation Analyzer. Total radioactivity for estrone and estradiol were determined in each sample and percent conversion of estradiol to estrone was calculated according to the following formula:
as §1

[3] = system: HSD1 enzyme that is expressed in rabbit placenta tissue; experiment: Inhibition of E1 to E2 conversion in rabbit placenta tissue homogenate; settings: inhibitor 100 nM, 30 nM estrone, 30 min
Method: The assay is based on an enzymatic reaction where HSD1 enzyme that is expressed in rabbit placenta tissue converts its natural substance estrone (E1) to estradiol (E2) in the presence of a co-factor β-NADPH.
Homogenization of rabbit placenta tissue: Weight a piece of the frozen tissue into a Precellys ck28 bead tube. Add buffer solution (20 mM KH2PO4 with 1 mM EDTA, pH 7,4) in 1:2 ratio (e.g. 300 mg of tissue:600 μl reaction buffer solution). Insert the bead tubes to homogenizer and homogenize 2×30 s. 6000 rpm. Centrifugated 5 min., 2600 rpm at +4° C. and collect supernatant. Aliquots of homogenate are stored in −80° C.
Assay—Inhibition of E1 to E2 conversion in rabbit placenta tissue: The reaction takes place in a buffer solution (20 mM KH2PO4 with 1 mM EDTA, pH 7,4), including appropriate amount of rabbit placenta homogenate, co-factor (1 mM β-NADPH), Substrate (30 nM estrone), labelled substrate as tracer (5 nM [^3H]-estrone). During a 30-minute incubation part of the estrone is converted to estradiol. The reaction is stopped by lowering the pH to 1 with 10% trichloro acetic acid (TCA). The substrate and conversion products are analyzed by HPLC and a Scintillation counter analyzer. Total radioactivity for estrone and estradiol were determined in each sample and percent conversion of estrone to estradiol was calculated according to the following formula:
Percent inhibition was calculated flowingly: % inhibition=100−% conversion.

SMILES	inhibition at 0.1 µM [1]	inhibition at 1 µM [2]	Rabbit placenta inhibition % @100 nM [3]
C[C@]12CCC3c4cccc(F)c4CCC3C1[C@H](CCC(=O)NC1COC1)C/C2=N\O (stereo partly drawn) [Compound 10, 3-((13S,15R,E)-4-fluoro-17-(hydroxyimino)-13-methyl-7,8,9,11,12,13,14,15,16,17-decahydro-6H-cyclopenta[a]phenanthren-15-yl)-N-(oxetan-3-yl)propanamide]	30%	5%	18%
C[C@]12CCC3c4ccccc4CCC3C1[C@H](CCC(=O)Nc1cc(F)ccn1)C/C2=N\O (stereo partly drawn) [Compound 158, N-(4-fluoropyridin-2-yl)-3-((13S,15R,E)-17-(hydroxyimino)-13-methyl-7,8,9,11,12,13,14,15,16,17-decahydro-6H-cyclopenta[a]phenanthren-15-yl)propanamide]	36%	4%	12%
C[C@]12CCC3c4cccc(F)c4CCC3C1[C@H](CCC(=O)Nc1ccc(C#N)cn1)C/C2=N\O (stereo partly drawn) [Compound 148, N-(5-cyanopyridin-2-yl)-3-((13S,15R,E)-4-fluoro-17-(hydroxyimino)-13-methyl-7,8,9,11,12,13,14,15,16,17-decahydro-6H-cyclopenta[a]phenanthren-15-yl)propanamide]	90%	9%	35%
CN(C(=O)CC[C@@H]1C/C(=N\O)[C@@]2(C)CCC3c4ccc(F)cc4CCC3C12)C1COC1 (stereo partly drawn) [Compound 36, 3-((13S,15R,E)-3-fluoro-17-(hydroxyimino)-13-methyl-7,8,9,11,12,13,14,15,16,17-decahydro-6H-cyclopenta[a]phenanthren-15-yl)-N-methyl-N-(oxetan-3-yl)propanamide]	33%	10%	12%
C[C@]12CCC3c4ccccc4CCC3C1[C@H](CCC(=O)Nc1cccc(F)n1)C/C2=N\O (stereo partly drawn) [Compound 168, N-(6-fluoropyridin-2-yl)-3-((13S,15R,E)-17-(hydroxyimino)-13-methyl-7,8,9,11,12,13,14,15,16,17-decahydro-6H-cyclopenta[a]phenanthren-15-yl)propanamide]	26%	9%	6%
Cc1cc(NC(=O)CC[C@@H]2C/C(=N\O)[C@@]3(C)CCC4c5ccc(Cl)cc5CCC4C23)no1 (stereo partly drawn) [Compound 54, 3-((13S,15R,E)-3-chloro-17-(hydroxyimino)-13-methyl-7,8,9,11,12,13,14,15,16,17-decahydro-6H-cyclopenta[a]phenanthren-15-yl)-N-(5-methylisoxazol-3-yl)propanamide]	47%	0%	10%
C[C@]12CCC3c4ccc(Cl)cc4CCC3C1[C@H](CCC(=O)Nc1ccc(C#N)cn1)C/C2=N\O (stereo partly drawn) [Compound 72, 3-((13S,15R,E)-3-chloro-17-(hydroxyimino)-13-methyl-7,8,9,11,12,13,14,15,16,17-decahydro-6H-cyclopenta[a]phenanthren-15-yl)-N-(5-cyanopyridin-2-yl)propanamide]	52%	7%	26%
Cc1ccc(NC(=O)CC[C@@H]2C/C(=N\O)[C@@]3(C)CCC4c5ccc(Cl)cc5CCC4C23)nn1 (stereo partly drawn) [Compound 76, 3-((13S,15R,E)-3-chloro-17-(hydroxyimino)-13-methyl-7,8,9,11,12,13,14,15,16,17-decahydro-6H-cyclopenta[a]phenanthren-15-yl)-N-(6-methylpyridazin-3-yl)propanamide]	33%	4%	56%
COc1ccc(NC(=O)CC[C@@H]2C/C(=N\O)[C@@]3(C)CCC4c5ccc(F)cc5CCC4C23)nc1 (stereo partly drawn) [Compound 28, 3-((13S,15R,E)-3-fluoro-17-(hydroxyimino)-13-methyl-7,8,9,11,12,13,14,15,16,17-decahydro-6H-cyclopenta[a]phenanthren-15-yl)-N-(5-methoxypyridin-2-yl)propanamide]	74%	7%	48%
C[C@]12CCC3c4cccc(F)c4CCC3C1[C@H](CCC(=O)N1CCCC1)C/C2=N\O (stereo partly drawn) [Compound 14, 3-((13S,15R,E)-4-fluoro-17-(hydroxyimino)-13-methyl-7,8,9,11,12,13,14,15,16,17-decahydro-6H-cyclopenta[a]phenanthren-15-yl)-1-(pyrrolidin-1-yl)propan-1-one]	53%	4%	14%
C[C@]12CCC3c4ccc(Cl)cc4CCC3C1[C@H](CCC(=O)Nc1cccc(F)n1)C/C2=N\O (stereo partly drawn) [Compound 170, 3-((13S,15R,E)-3-chloro-17-(hydroxyimino)-13-methyl-7,8,9,11,12,13,14,15,16,17-decahydro-6H-cyclopenta[a]phenanthren-15-yl)-N-(6-fluoropyridin-2-yl)propanamide]	34%	12%	13%
